Measurements reported in US20020028938A1, “Prostaglandin endoperoxide H synthase biosynthesis inhibitors” (priority 1997, published 2002).

Tests used:
[1] = molecular target: T1, human amnionic whole cell cyclooxygenase-2 (WISH cells) (Homo sapiens, UniProt P35354); assay: IL-1β induced PGE2 production in WISH cells; assay type: cell-based; details: for IC50: read-out: Wish IC50 (parenthetical value)
T1 construct: endogenous in cells; host or cells: human amnionic WISH cells, induced with IL-1beta
T1 sequence (P35354 18-604): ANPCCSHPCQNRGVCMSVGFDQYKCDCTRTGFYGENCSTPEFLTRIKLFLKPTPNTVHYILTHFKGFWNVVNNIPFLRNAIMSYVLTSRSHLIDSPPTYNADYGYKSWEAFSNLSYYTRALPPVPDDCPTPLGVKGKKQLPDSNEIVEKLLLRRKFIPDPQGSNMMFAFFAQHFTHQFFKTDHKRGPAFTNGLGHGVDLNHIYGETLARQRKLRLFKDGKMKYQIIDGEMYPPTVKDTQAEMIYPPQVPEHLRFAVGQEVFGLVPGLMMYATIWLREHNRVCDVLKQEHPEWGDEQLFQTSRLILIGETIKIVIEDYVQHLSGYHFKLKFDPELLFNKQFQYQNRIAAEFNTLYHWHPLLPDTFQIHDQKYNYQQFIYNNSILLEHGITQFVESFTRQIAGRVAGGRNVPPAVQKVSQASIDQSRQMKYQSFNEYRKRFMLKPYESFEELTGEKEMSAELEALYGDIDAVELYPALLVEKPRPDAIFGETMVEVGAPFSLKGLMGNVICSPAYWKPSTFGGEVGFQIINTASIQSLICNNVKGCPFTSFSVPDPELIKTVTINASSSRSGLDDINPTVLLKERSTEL
Method: EIA reagents for prostaglandin determination were purchased from Perseptive Diagnostics, (Cambridge, Mass.). Prostaglandin E2 (PGE2) levels in lavage fluids were determined after the samples were dried under nitrogen and reconstituted with assay buffer. PGE2 levels in enzyme assays or cell culture media were measured against standards prepared in the same milieu. The immunoassays were conducted as recommended by the manufacturer. The EIA was conducted in 96 well microtiter plates (Nunc Roskilde, Denmark) and optical density was measured using a microplate reader (Vmax, Molecular Devices Corp., Menlo Park, Calif.).
Human amnionic WISH cells were grown to 80% confluence in 48 well plates. Following removal of the growth medium and two washings with Geys Balanced Salt Solutn, 5 ng IL-1β /ml (UBI, Lake Placid, N.Y.) was added to the cells with or without test compound in DMSO (0.01% v/v) in Neuman-Tytell Serumless Medium (GIBCO, Grand Island, N.Y.).

[2] = molecular target: T2, recombinant human Cox-2 (r-hu Cox-2) (Homo sapiens, UniProt P35354); assay: Recombinant human PGHS-2 enzyme assay (RHUCX2); assay type: biochemical; details: for IC50: read-out: RHUCX2 IC50 (parenthetical value)
T2 construct: made in house; host or cells: baculovirus/Sf9 insect cells (microsomes)
T2 sequence (P35354 18-604): T1 sequence (P35354 18-604)
Summary of the method: (§1)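 Prostaglandin biosynthesis was measured as PGE2 output, read by enzyme immunoassay after a 2.5-minute room-temperature reaction stopped with HCl and neutralized with NaOH.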

[3] = molecular target: T3, recombinant human Cox-1 (r-hu Cox1) (Homo sapiens, UniProt P23219); assay: Recombinant human PGHS-1 enzyme assay (RHUCX1); assay type: biochemical; details: 100 μM; read-out: RHUCX1 % Inh. at Dose
T3 construct: made in house; host or cells: baculovirus/Sf9 insect cells (microsomes)
Summary of the method: as §1

[4] = read-out: Wish % Inhib. at Dose
[5] = 0.1 μM, read-out: Wish % Inhib. at Dose
[6] = read-out: RHUCX2 % Inh. at Dose

T3 sequence (P23219 24-599): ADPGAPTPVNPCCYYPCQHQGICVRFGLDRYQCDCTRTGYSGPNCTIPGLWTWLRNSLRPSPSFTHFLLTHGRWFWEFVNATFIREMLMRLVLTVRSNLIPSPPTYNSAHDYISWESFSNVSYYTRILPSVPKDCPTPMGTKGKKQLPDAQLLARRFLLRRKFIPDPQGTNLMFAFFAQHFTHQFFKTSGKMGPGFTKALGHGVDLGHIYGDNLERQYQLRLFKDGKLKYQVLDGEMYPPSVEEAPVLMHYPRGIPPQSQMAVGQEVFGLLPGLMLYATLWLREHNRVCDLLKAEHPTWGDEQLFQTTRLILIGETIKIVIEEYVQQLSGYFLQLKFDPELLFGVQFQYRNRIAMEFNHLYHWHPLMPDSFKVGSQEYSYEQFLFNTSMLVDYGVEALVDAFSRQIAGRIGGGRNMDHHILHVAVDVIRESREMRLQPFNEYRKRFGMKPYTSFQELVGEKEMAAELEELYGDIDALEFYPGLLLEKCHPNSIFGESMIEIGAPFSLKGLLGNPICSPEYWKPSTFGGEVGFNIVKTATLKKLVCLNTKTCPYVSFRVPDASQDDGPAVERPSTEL

Compound	IC50 [1] [µM]	melting point [°C]	inhibition at 100 µM [3] [%]	further results
CS(=O)(=O)c1ccc(-c2cnn(CC(F)(F)F)c(=O)c2OC2CCCC2)cc1 [Example 85, 2-(2,2,2-Trifluoroethyl)-4-cyclopentyloxy-5-[4-(methylsulfonyl)phenyl]-3(2H)-pyridazinone]	0.47	148 to 150		
CC(C)Nc1c(-c2ccc(S(C)(=O)=O)cc2)cnn(CC(F)(F)F)c1=O [Example 86, 2-(2,2,2-Trifluoroethyl)-4-(2-propylamino)-5-[4-(methylsulfonyl)phenyl]-3(2H)-pyridazinone]				inhibition at 0.01 µM ([1]; 0.01 μM, read-out: Wish % Inhib. at Dose): 47%; inhibition at 1 µM [1, 4]: 52%
CS(=O)(=O)c1ccc(-c2cnn(-c3ccc(F)c(Cl)c3)c(=O)c2-c2ccc(Cl)cc2)cc1 [Example 102, 2-(3-Chloro-4-fluorophenyl)-4-(4-chlorophenyl)-5-[4-(methylsulfonyl)phenyl]-3(2H)-pyridazinone]	0.05	205		
NS(=O)(=O)c1ccc(-c2cnn(C3C=CCCC3)c(=O)c2-c2ccc(F)cc2)cc1 (stereo not drawn) [Example 126]	0.05			
CS(=O)(=O)c1ccc(-c2cnn(C3CCc4ccccc43)c(=O)c2-c2ccc(F)cc2)cc1 (stereo not drawn) [Example 129, 2-(2,3-Dihydro-1H-inden-1-yl)-4-(4-fluorop,henyl)-5-[4-(methylsulfonyl)phenyl]-3(2H)-pyridazinone]	0.04	128 to 130		
NS(=O)(=O)c1ccc(-c2cnn(Cc3cc(F)c(F)cc3F)c(=O)c2-c2ccc(F)cc2)cc1 [Example 152, 2-(2,4,5-Trifluorobenzyl)-4-(4-fluorophenyl)-5-[4-(aminosulfonyl)phenyl]-3(2H)-pyridazinone]	0.029	236 to 238		
C=Cc1cccc(-n2ncc(-c3ccc(S(C)(=O)=O)cc3)c(-c3ccc(F)cc3)c2=O)c1 [Example 162, 2-(3-Vinylphenyl)-4-(4-fluorophenyl)-5-[4-(methylsulfonyl)phenyl]-3(2H)-pyridazinone]	0.034	182 to 183		
CS(=O)(=O)c1ccc(-c2cnn(-c3ccc(Cl)cc3F)c(=O)c2-c2ccc(F)cc2)cc1 [Example 191, 2-(4-Chloro-2-fluorophenyl)-4-(4-fluorophenyl)-5-[4-(methylsulfonyl)phenyl]-3(2H)-pyridazinone]	0.06	250 to 260		
CC(C)Oc1c(-c2ccc(S(C)(=O)=O)cc2)cnn(-c2cccc(Br)c2)c1=O [Example 203, 2-(3-Bromophenyl)-4-(2-propoxy)-5-[4-(methylsulfonyl)phenyl]-3(2H)-pyridazinone]		130 to 132		inhibition at 0.1 µM [1, 5]: 23%; inhibition at 1 µM [1, 4]: 77%
CS(=O)(=O)c1ccc(-c2cnn(-c3cccc(Cl)c3)c(=O)c2COc2ccc(F)cc2)cc1 [Example 207, 2-(3-Chlorophenyl)-4-(4-fluorophenoxmethyl)-5-[4-(methylsulfonyl)phenyl]-3(2H)-pyridazinone]	0.068			inhibition at 0.1 µM [2, 6]: 81%; inhibition at 1 µM [2, 6]: 97%
CC(C)CCOc1c(-c2ccc(S(N)(=O)=O)cc2)cnn(C(C)(C)C)c1=O [Example 399]				Wish % Inhib. at Dose (μM) ([1]; 0.03 μM): 39 @ 0.03%; Wish % Inhib. at Dose (μM) ([1]; 0.1 μM): 82 @ 0.1%
CC(C)CCOc1c(-c2ccc(S(C)(=O)=O)cc2)cnn(CC(F)(F)F)c1=O [Example 447, 2-(2,2,2-Trifluoroethyl)-4-(3-methylbutoxy)-5-[4-(methylsulfonyl)phenyl]-3(2H)-pyridazinone]		111 to 113	0	inhibition at 0.01 µM [2, 6]: 35%; inhibition at 0.1 µM [2, 6]: 57%; inhibition at 1 µM [2, 6]: 90%

The next lines start with results.

IC50 [1] [µM]	melting point [°C]	inhibition at 100 µM [3] [%]	Compound	further results
	113 to 115		CS(=O)(=O)c1ccc(-c2cnn(CC(F)(F)F)c(=O)c2OCc2ccco2)cc1 [Example 271, 2-(2,2,2-Trifluoroethyl)-4-(2-furylmethoxy)-5-[4-(methylsulfonyl)phenyl]-3(2H)-pyridazinone]	inhibition at 0.1 µM [1, 5]: 15%; inhibition at 1 µM [1, 4]: 52%
0.027			CS(=O)(=O)c1ccc(-c2cnn(Cc3ccccc3)c(=O)c2-c2ccsc2)cc1 [Example 317, 2-Benzyl-4-(3-thienyl)-5-[4-(methylsulfonyl)phenyl]-3(2H)-pyridazinone]	
0.047			COc1ccccc1-c1c(-c2ccc(S(C)(=O)=O)cc2)cnn(Cc2ccccc2)c1=O [Example 324, 2-Benzyl-4-(2-methoxyphenyl)-5-[4-(methylsulfonyl)phenyl]-3(2H)-pyridazinone]	
0.05			COc1ccc(-c2c(-c3ccc(S(C)(=O)=O)cc3)cnn(Cc3ccccc3)c2=O)cc1F [Example 326, 2-Benzyl-4-(3-fluoro-4-methoxyphenyl)-5-[4-(methylsulfonyl)phenyl]-3(2H)-pyridazinone]	
	110 to 111	1	CC(C)=CCCOc1c(-c2ccc(S(C)(=O)=O)cc2)cnn(-c2cccc(Cl)c2)c1=O [Example 426, 2-(3-Chlorophenyl)-4-(4-methyl-3-pentenyloxy)-5-[4-(methylsulfonyl)phenyl]-3(2H)-pyridaznone]	IC50 [2]: 0.057 µM
	106 to 107	0	C=CCC(C)COc1c(-c2ccc(S(C)(=O)=O)cc2)cnn(-c2ccc(F)cc2)c1=O (stereo not drawn) [Example 434, 2-(4-Fluorophenyl)-4-(2-methyl-4-pentenyl-1-oxy)-5-[4-(methylsulfonyl)phenyl]-3(2H)-pyridazinone]	IC50 [2]: 0.081 µM
	98 to 99	16	CC(C)CCCOc1c(-c2ccc(S(C)(=O)=O)cc2)cnn(-c2ccc(F)c(F)c2)c1=O [Example 437, 2-(3,4-Difluorophenyl)-4-(4-methyl-1-pentyloxy)-5-[4-(methylsulfonyl)phenyl]-3(21)-pyridazinone]	IC50 [2]: 0.124 µM
	132 to 133	0	CC(C)CC(C)Oc1c(-c2ccc(S(C)(=O)=O)cc2)cnn(-c2ccc(F)c(F)c2)c1=O (stereo not drawn) [Example 438]	IC50 [2]: 0.127 µM
	126 to 127	20	CS(=O)(=O)c1ccc(-c2cnn(-c3ccc(F)c(F)c3)c(=O)c2OCCC2C=CCC2)cc1 (stereo not drawn) [Example 440, 2-(3,4-Difluorophenyl)-4-(2-cyclopent-2-enyl-1-ethoxy)-5-[4-(methylsulfonyl)phenyl]-3(2H)-pyridazinone]	inhibition at 0.01 µM [2, 6]: 22%; inhibition at 0.1 µM [2, 6]: 59%; inhibition at 1 µM [2, 6]: 84%
	95 to 99	35	CON=C(Cn1ncc(-c2ccc(S(C)(=O)=O)cc2)c(-c2ccc(F)cc2)c1=O)c1ccccc1 [Example 443, 2-(2-Methoxyimino-2-phenylethyl)-4-(4-fluorophenyl)-5-[4-(methylsulfonyl)phenyl]-3(2H)-pyridazinone]	inhibition at 0.01 µM [2, 6]: 74%; inhibition at 0.1 µM [2, 6]: 86%
	111 to 113	0	CC(C)CCCc1c(-c2ccc(S(C)(=O)=O)cc2)cnn(-c2ccc(F)c(F)c2)c1=O [Example 444, 2-(3,4-Difluorophenyl)-4-(4-methylpentyl)-5-[4-(methylsulfonyl)phenyl]-3(2H)-pyridazinone]	inhibition at 0.1 µM [2, 6]: 62%; inhibition at 1 µM [2, 6]: 83%; inhibition at 10 µM ([2]; 10 μM, read-out: RHUCX2 % Inh. at Dose): 14%
